Seven molecules from BindingDB's records for patent US20250066368 (Shanghai Apeiron Therapeutics Company, 2025) can be followed below.

A word on the IC50: it is the midpoint of a concentration-inhibition curve. Higher therefore signals lower potency.

Molecules are shown by their SMILES. Bounds are passed on as bounds.

In the experiment the target is T1, DNA polymerase theta [1792-2590] (UniProt O75417).
T1 construct: 1792-2590
T1 sequence (O75417 whole entry): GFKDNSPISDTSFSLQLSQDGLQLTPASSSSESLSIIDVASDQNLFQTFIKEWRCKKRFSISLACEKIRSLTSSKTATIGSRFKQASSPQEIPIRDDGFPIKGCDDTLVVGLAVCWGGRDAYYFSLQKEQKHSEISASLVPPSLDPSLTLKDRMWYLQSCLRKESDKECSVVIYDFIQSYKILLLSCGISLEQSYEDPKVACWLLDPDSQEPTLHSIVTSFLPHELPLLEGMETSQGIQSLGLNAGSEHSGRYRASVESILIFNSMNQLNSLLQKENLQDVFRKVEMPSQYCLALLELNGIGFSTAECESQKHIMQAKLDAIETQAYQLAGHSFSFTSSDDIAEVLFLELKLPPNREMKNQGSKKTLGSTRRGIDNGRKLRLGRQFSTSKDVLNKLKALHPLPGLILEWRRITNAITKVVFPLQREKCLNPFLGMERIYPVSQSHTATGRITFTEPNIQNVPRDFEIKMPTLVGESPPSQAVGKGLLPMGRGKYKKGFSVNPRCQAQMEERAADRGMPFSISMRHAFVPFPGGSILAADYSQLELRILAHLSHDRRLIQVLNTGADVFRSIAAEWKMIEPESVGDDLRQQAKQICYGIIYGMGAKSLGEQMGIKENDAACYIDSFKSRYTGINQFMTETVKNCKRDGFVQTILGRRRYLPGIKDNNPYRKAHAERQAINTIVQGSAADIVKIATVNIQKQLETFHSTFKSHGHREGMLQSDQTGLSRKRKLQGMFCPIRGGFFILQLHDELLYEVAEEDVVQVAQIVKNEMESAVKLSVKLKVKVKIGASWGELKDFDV
Briefly: ADP-Glo Kinase Assay. As for the experimental part: The ability of compounds to inhibit Pol 0 polymerase activity was determined by the PicoGreen method in vitro.The His-TEV-SUMO-tagged Polθ protein (amino acids 1792-2590) expressed in E. coli was purified and stored in aliquots at −80° C.The composition of the assay buffer is 25 mM Tris HCl pH 7.5, 12.5 mM NaCl, 0.5 mM MgCl2, 5% glycerol, 0.01% Triton X-100, 0.01% BSA, and 1 mM DTT.Test compounds were diluted in 100% DMSO and diluted three-fold into 10 concentration points in a dilution plate (Greiner-781280) using Bravo (Agilent) according to concentration requirements. The compounds diluted in DMSO were then diluted 20-fold in the assay buffer using Bravo. Further, 2 μl of diluted compounds were transferred to the assay plate (Corning-4512) using Bravo. The purified Pol 0 enzyme and primers ((primer strand: 5′-GCGGCTGTCATAAG-3′, SEQ ID NO: 1):(template strand: 5′-[…]-3′, SEQ ID NO: 2)=1:1.1) were prepared at a working concentration of 2.5× (1.5 nM Polθ and 50 nM PTD) in the assay buffer, transferred to the assay plate at 4 μl per well using an E1-CLIPTIP 12-channel pipette (Thermo, 1-30 l), and incubated at room temperature for 30 min. dNTP (Sigma-D7295) was diluted with the assay buffer to a working concentration of 2.5× (40 uM dNTP), transferred to the assay plate at 4 μl per well (final DMSO concentration of 1%) using an El-CLIPTIP 12-channel pipette (Thermo, 1-30 l), and incubated at room temperature for 60 min. A mixture containing 10 mM EDTA, 25 mM Tris pH 7.5, and a 1:200 diluted PicoGreen dye (Invitrogen-P7581) was added to the assay plate at 6 μl per well to stop the reaction. After 30 min of reaction at room temperature in the dark, fluorescence values were read on EnVision 2105 (PerkinElmer) using the Ex480 nm Em520 nm program, and the raw data was analyzed using XLfit to generate IC50 values.
Background: In ADP-Glo the light output rises with the ADP produced.
Turning to `CN(C(=O)[C@@H]1[C@H](O)[C@H](O)C(=O)N1c1cc(C(F)(F)F)c2c(n1)CCC2)c1cc(Cl)c(F)cc1F` [US20250066368, Compound 7], the IC50 was below 50 nM. Next, `[2H]C([2H])([2H])N(C(=O)C1[C@H](O)[C@H](O)C(=O)N1c1cc(C(F)(F)F)c2ccsc2n1)c1cc(Cl)c(F)cc1F` (some centres not stated) [US20250066368, Compound 16]: below 50 nM; `[2H]C([2H])([2H])N(C(=O)[C@@H]1[C@H](O)[C@H](O)C(=O)N1c1cc(C(F)(F)F)c2cc[se]c2n1)c1cc(Cl)c(F)cc1F` [US20250066368, Compound 46]: below 50 nM; `[2H]C([2H])([2H])N(C(=O)[C@@H]1[C@H](O)[C@H](O)C(=O)N1c1cc(C(F)(F)F)c2ncsc2n1)c1cc(Cl)c(F)cc1F` [US20250066368, Compound 26]: below 50 nM. Molecule `[2H]C([2H])([2H])N(C(=O)[C@@H]1[C@H](O)[C@H](O)C(=O)N1c1cc(C(F)(F)F)c2c(n1)C(=O)CC2)c1cc(Cl)c(F)cc1F` [US20250066368, Compound 45] gave an IC50 below 50 nM. To `CN(C(=O)[C@@H]1CNC(=O)N1c1cc(C(F)(F)F)c2c(n1)C=CC2)c1ccc(F)c(Cl)c1F` [US20250066368, Compound 21] belongs below 50 nM; to `[2H]C([2H])([2H])N(C(=O)[C@@H]1[C@H](O)[C@H](O)C(=O)N1c1cc(C(F)(F)F)c2c(n1)CC=C2)c1cc(Cl)c(F)cc1F` [US20250066368, Compound 19], below 50 nM.
